# Test results taken from US20120149718A1, “Amido Compounds” (priority 2010, published 2012).
# Key:
# human P2X7 = biological target: T1, human P2X7 (Homo sapiens, UniProt Q99572); assay: Intracellular Calcium Flux (FLIPR) Assay; assay type: cell-based; conditions: 1321N1 cells stably expressing full length human P2X7; agonist 100 μM BzATP; fluo-3 calcium flux; read-out: FLIPR pIC50 hP2X7-1321n1 (converted)
# T1 construct: 1321N1 cells stably expressing the full length human P2X7 gene (1321N1-hP2X7)
# T1 sequence (Q99572 1-595): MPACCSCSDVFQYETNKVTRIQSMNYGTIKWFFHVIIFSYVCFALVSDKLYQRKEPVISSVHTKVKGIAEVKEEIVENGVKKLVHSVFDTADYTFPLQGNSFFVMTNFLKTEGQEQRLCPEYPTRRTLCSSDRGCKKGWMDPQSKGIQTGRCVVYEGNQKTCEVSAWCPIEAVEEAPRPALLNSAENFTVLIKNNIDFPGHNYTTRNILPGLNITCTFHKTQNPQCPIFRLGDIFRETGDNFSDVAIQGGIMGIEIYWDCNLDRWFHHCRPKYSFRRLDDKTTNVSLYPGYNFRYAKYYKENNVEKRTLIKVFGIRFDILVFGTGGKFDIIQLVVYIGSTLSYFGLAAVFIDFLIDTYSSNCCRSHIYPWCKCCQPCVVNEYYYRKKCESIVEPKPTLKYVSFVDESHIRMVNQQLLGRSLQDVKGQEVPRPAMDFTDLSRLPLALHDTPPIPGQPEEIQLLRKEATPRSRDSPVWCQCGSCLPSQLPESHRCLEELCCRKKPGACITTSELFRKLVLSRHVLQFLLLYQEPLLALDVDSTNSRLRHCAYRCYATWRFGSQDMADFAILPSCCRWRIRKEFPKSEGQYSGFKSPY
# Protocol: Stock solutions of compounds were prepared from powders as a 10 mM DMSO stock solution. These solutions were stored at RT during the two week period of these experiments to prevent freeze-thaw of the DMSO stocks. The DMSO stocks were added to the appropriate assay buffer at a concentration of 10 μM, and then diluted serially to the final concentrations that were tested. No observable precipitate was formed at any time during this process. The aqueous solutions of compounds as well as ATP (Sigma A7699) and BzATP (Sigma B6396) were prepared fresh for each day of experiment.
# 1321N1 cells stably expressing the full length human P2X7 gene (1321N1-hP2X7) and HEK293 cells stably expressing the full length rat P2X7 gene (HEK293-rP2X7) were obtained from the Roche Cell Culture Facility. 1321N1-hP2X7 cells were grown in Dulbecco's Modified Eagle's Medium (DMEM) high glucose supplemented with 10% FBS and 250 μg/mL G418. HEK293-rP2X7 cells were grown in DMEM/F-12 supplemented with 10% FBS, 1 mM CaCl2, 2 mM MgCl2, 2 mM L-Glutamine and 500 μg/ml G418. Cells were split such that they never became >70% confluent.
# On the day prior to the experiment, 1321N1-hP2X7 or HEK293-rP2X7 cells were released into suspension with calcium-free PBS+Versene and washed by centrifugation with calcium-free PBS to remove the Versene. Cells were resuspended in growth medium at a density of 2.5×10^5 cells/mL and seeded into black walled, clear bottom 96 well plates (50,000 cells/well) approximately 18 hr prior to intracellular calcium flux experiments.
# On the day of the experiment, plates were washed with FLIPR buffer (calcium- and magnesium-free Hank's Balanced Salt Solution (HBSS) supplemented with 10 mM Hepes, 2.5 mM probenecid and 2 mM calcium chloride) using a BIO-TEK 96 channel plate washer and incubated with […] fluo-3 dye at 37° C. for one hr. The dye was then removed by plate washing and the cells were allowed to equilibrate for 20 min at room temperature with antagonist or vehicle (FLIPR buffer). Agonist (100 μM BzATP final concentration for hP2X7; 5 μM BzATP final concentration or rP2X7) was added online with the FLIPR and fluorescence measurements made at 1 sec intervals for 60 sec followed by 3 sec intervals for a further 4 min (5 min total). A final addition of 5 μM ionomycin was made and the maximal BzATP-evoked fluorescence normalized to the maximal ionomycin-evoked fluorescence.
Structure (SMILES),melting point,IC50 (human P2X7)
"Cc1ccccc1CC(C(=O)Nc1cnc(Br)cn1)c1ccc(S(C)(=O)=O)cc1 (centres unmarked) [Compound I-1, N-(5-Bromo-pyrazin-2-yl)-2-(4-methanesulfonyl-phenyl)-3-o-tolyl-propionamide]",193.5 to 194.8 °C,389 nM
"Cc1ccccc1CC(C(=O)Nc1nc2ccccc2o1)c1ccc(S(C)(=O)=O)cc1 (centres unmarked) [Compound I-2, N-Benzooxazol-2-yl-2-(4-methanesulfonyl-phenyl)-3-o-tolyl-propionamide]",105.7 to 108.9 °C,302 nM
"Cc1ccccc1CC(C(=O)Nc1nc2cc(Cl)ccc2o1)c1ccc(S(C)(=O)=O)cc1 (centres unmarked) [Compound I-3, N-(5-Chloro-benzooxazol-2-yl)-2-(4-methanesulfonyl-phenyl)-3-o-tolyl-propionamide]",184 to 185 °C,1170 nM
"CS(=O)(=O)c1ccc(C(Cc2ccccc2)C(=O)Nc2nc3ccccc3o2)cc1 (centres unmarked) [Compound I-4, N-Benzooxazol-2-yl-2-(4-methanesulfonyl-phenyl)-3-phenyl-propionamide]",118 to 119 °C,81.3 nM
"CS(=O)(=O)c1ccc(C(Cc2ccccc2Cl)C(=O)Nc2nc3ccccc3o2)cc1 (centres unmarked) [Compound I-5, N-Benzooxazol-2-yl-3-(2-chloro-phenyl)-2-(4-methanesulfonyl-phenyl)-propionamide]",107 to 108 °C,537 nM
"CS(=O)(=O)c1ccc(C(Cc2ccc(F)cc2Cl)C(=O)Nc2nc3ccccc3o2)cc1 (centres unmarked) [Compound I-6, N-Benzooxazol-2-yl-3-(2-chloro-4-fluoro-phenyl)-2-(4-methanesulfonyl-phenyl)-propionamide]",127 to 128 °C,794 nM
"CS(=O)(=O)c1ccc(C(Cc2ccc(F)cc2)C(=O)Nc2nc3ccccc3o2)cc1 (centres unmarked) [Compound I-7, N-Benzooxazol-2-yl-3-(4-fluoro-phenyl)-2-(4-methanesulfonyl-phenyl)-propionamide]",109 to 110 °C,63.1 nM
"CS(=O)(=O)c1ccc(C(Cc2ccccc2F)C(=O)Nc2nc3ccccc3o2)cc1 (centres unmarked) [Compound I-8, N-Benzooxazol-2-yl-3-(2-fluoro-phenyl)-2-(4-methanesulfonyl-phenyl)-propionamide]",99 to 100 °C,87.1 nM
"COc1ccc(CC(C(=O)Nc2nc3ccccc3o2)c2ccc(S(C)(=O)=O)cc2)cc1 (centres unmarked) [Compound I-9, N-Benzooxazol-2-yl-2-(4-methanesulfonyl-phenyl)-3-(4-methoxy-phenyl)-propionamide]",101.9 to 105.9 °C,229 nM
"CS(=O)(=O)c1cccc(C(Cc2ccc(F)cc2)C(=O)Nc2nc3ccccc3o2)c1 (centres unmarked) [Compound I-12, N-Benzooxazol-2-yl-3-(4-fluoro-phenyl)-2-(3-methanesulfonyl-phenyl)-propionamide]",99 to 100 °C,741 nM
"CSc1cnc(NC(=O)C(Cc2ccc(F)cc2)c2ccc(S(C)(=O)=O)cc2)cn1 (centres unmarked) [Compound I-14, 3-(4-Fluoro-phenyl)-2-(4-methanesulfonyl-phenyl)-N-(5-methylsulfanyl-pyrazin-2-yl)-propionamide]",187.7 to 188.4 °C,1120 nM
"CCOC(=O)c1cnc(NC(=O)C(Cc2ccc(F)cc2)c2ccc(S(C)(=O)=O)cc2)cn1 (centres unmarked) [Compound I-15, 5-[3-(4-Fluoro-phenyl)-2-(4-methanesulfonyl-phenyl)-propionylamino]-pyrazine-2-carboxylic acid ethyl ester]",106 to 107 °C,224 nM
"CS(=O)(=O)c1ccc(C(Cc2ccc(F)cc2)C(=O)Nc2nc3ncccc3o2)cc1 (centres unmarked) [Compound I-18, 3-(4-Fluoro-phenyl)-2-(4-methanesulfonyl-phenyl)-N-oxazolo[4,5-b]pyridin-2-yl-propionamide]",261 to 263.7 °C,234 nM
"Cc1cnc(NC(=O)C(Cc2ccc(F)cc2)c2ccc(S(C)(=O)=O)cc2)cn1 (centres unmarked) [Compound I-19, 3-(4-Fluoro-phenyl)-2-(4-methanesulfonyl-phenyl)-N-(5-methyl-pyrazin-2-yl)-propionamide]",172.4 to 175.3 °C,708 nM
"CS(=O)(=O)c1ccc(C(Cc2ccc(F)cc2)C(=O)Nc2nc3ccc(CO)cc3o2)cc1 (centres unmarked) [Compound I-20, 3-(4-Fluoro-phenyl)-N-(6-hydroxymethyl-benzooxazol-2-yl)-2-(4-methanesulfonyl-phenyl)-propionamide]",128 to 130 °C,20.4 nM
"COCc1cnc(NC(=O)C(Cc2ccc(F)cc2)c2ccc(S(C)(=O)=O)cc2)cn1 (centres unmarked) [Compound I-21, 3-(4-Fluoro-phenyl)-2-(4-methanesulfonyl-phenyl)-N-(5-methoxymethyl-pyrazin-2-yl)-propionamide]",69 to 82.3 °C,646 nM

# Second part, the molecule after the results:
melting point,IC50 (human P2X7),Structure (SMILES)
99 to 100 °C,741 nM,"CCOCc1cnc(NC(=O)C(Cc2ccc(F)cc2)c2ccc(S(C)(=O)=O)cc2)cn1 (centres unmarked) [Compound I-22, N-(5-Ethoxymethyl-pyrazin-2-yl)-3-(4-fluoro-phenyl)-2-(4-methanesulfonyl-phenyl)-propionamide]"
191.6 to 192.7 °C,851 nM,"CS(=O)(=O)c1ccc(C(Cc2ccc(F)cc2)C(=O)Nc2cncc(Cl)n2)cc1 (centres unmarked) [Compound I-25, N-(6-Chloro-pyrazin-2-yl)-3-(4-fluoro-phenyl)-2-(4-methanesulfonyl-phenyl)-propionamide]"
82.8 to 98.7 °C,339 nM,"CS(=O)(=O)c1ccc(C(Cc2cccc(F)c2)C(=O)Nc2cnc(CO)cn2)cc1 (centres unmarked) [Compound I-26, 3-(3-Fluoro-phenyl)-N-(5-hydroxymethyl-pyrazin-2-yl)-2-(4-methanesulfonyl-phenyl)-propionamide]"
177.5 to 177.9 °C,501 nM,"O=C(Nc1nc2ccccc2o1)C(Cc1ccc(F)cc1)c1ccc(F)cc1F (centres unmarked) [Compound I-29, N-Benzooxazol-2-yl-2-(2,4-difluoro-phenyl)-3-(4-fluoro-phenyl)-propionamide]"
122 to 125 °C,457 nM,"CCOC(=O)c1ccc(C(Cc2ccc(F)cc2)C(=O)Nc2nc3ccccc3o2)cc1 (centres unmarked) [Compound I-30, 4-[1-(Benzooxazol-2-ylcarbamoyl)-2-(4-fluoro-phenyl)-ethyl]-benzoic acid ethyl ester]"
–,31.6 nM,"CS(=O)(=O)c1ccc(C(Cc2ccc(F)cc2)C(=O)Nc2nc3cnccc3o2)cc1 (centres unmarked) [Compound I-51, 3-(4-Fluoro-phenyl)-2-(4-methanesulfonyl-phenyl)-N-oxazolo[4,5-c]pyridin-2-yl-propionamide]"
–,66.1 nM,"CS(=O)(=O)c1ccc(C(Cc2ccc(F)cc2)C(=O)Nc2nc3ccncc3o2)cc1 (centres unmarked) [Compound I-52, 3-(4-Fluoro-phenyl)-2-(4-methanesulfonyl-phenyl)-N-oxazolo[5,4-c]pyridin-2-yl-propionamide]"
–,407 nM,"CS(=O)(=O)c1ccc(CC(C(=O)Nc2nc3ccccc3o2)c2ccc(F)cc2)cc1 (centres unmarked) [Compound I-53, N-Benzooxazol-2-yl-2-(4-fluoro-phenyl)-3-(4-methanesulfonyl-phenyl)-propionamide]"
–,30.9 nM,"O=C(Nc1nc2ccccc2o1)C(Cc1ccc(F)cc1)c1ccncc1 (centres unmarked) [Compound I-54, N-Benzooxazol-2-yl-3-(4-fluoro-phenyl)-2-pyridin-4-yl-propionamide]"
–,661 nM,"CS(=O)(=O)c1ccc(C(Cc2ccncc2)C(=O)Nc2nc3ccccc3o2)cc1 (centres unmarked) [Compound I-55, N-Benzooxazol-2-yl-2-(4-methanesulfonyl-phenyl)-3-pyridin-4-yl-propionamide]"
